According to patent publication US8663668B2, “Preservative for medical devices” (Fresenius Medical Care Deutschland GmbH, priority 2004, dated 2014):

Assay: antimicrobial effectiveness test (USP 27), disinfectant/preservative effect
Format: cell-based
Conditions: additive alone
Description: Within the context of the present invention, preferably poly(hexamethylene)biguanide having a molecular weight of 2900 to 15,000 (PHMB) is used as the biguanide compound. An especially preferred disinfection solution contains PHMB in a concentration of 0.01% to 0.5% by weight, where concentrations of 0.02% to 0.06% by weight are especially advantageous. A neutral buffer containing phosphate, and preferably also containing the following substances is used as the medium: sodium citrate dihydrate, sodium acetate trihydrate, sodium chloride, sodium monohydrogen phosphate, potassium dihydrogen phosphate. Such a solution effectively disinfects and preserves the aforementioned medical devices and is in compliance with the requirements of the “antimicrobial effectiveness tests” described in USP 27 (United States Pharmacopoeia).
An adsorber column of the type IMMUNOSORBA (Fresenius Adsorber Technology GmbH) is used to remove antibodies from blood plasma and binds the antibodies via protein A of Staphylococcus aureus. This adsorber column is filled with a solution according to Example 1.

N[C@@H](Cc1c[nH]c2ccccc12)C(=O)O [Tryptophan, tryptophan]
disinfectant effect: does not have any disinfectant effect
